Measurements published in US20250332173A1, “COMPOUNDS AND METHODS FOR MODULATING NUCLEIC ACID SPLICING” (REMIX THERAPEUTICS INC., priority 2021, published 2025).
Like-named read-outs stand apart in the source and are kept apart here.

Test system: MYB mRNA
Test: RT-qPCR splicing assay, MYB canonical junction (CJ) and alternative junction (AJ) mRNA
Format: cell-based, human
Details: Homo sapiens; for AC50: increase in MYB alternative junction (AJ) mRNA, read-out: MYB AJ AC50
Outline: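 A673 or K562 cells were treated for 24 h at 37 °C with an 11-point 3-fold compound dilution series (top final concentration 10 uM, DMSO ≤0.25%). After lysis, one-step TaqMan RT-qPCR quantified junction transcripts, normalized to PPIA for A673 or to GAPDH/GUSB for K562.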

[1] = Table 5 panel, canonical junction qPCR, compound concentration having 50% response in CJ decrease, read-out: MYB IC50 (decrease in CJ mRNA levels)
[2] = decrease in MYB canonical junction (CJ) mRNA, RT-qPCR, read-out: MYB CJ IC50

SMILES | IC50 [1] [nM] | IC50 [2] [nM] | AC50 (RT-qPCR) [nM]
CCN1CCC(N2CCc3cc(-c4cc(C)c5nc(C)cn5n4)ccc3C2=O)CC1 [Compound 270] | 1000 to 10000 | 1000 to 10000 | 1000 to 10000
Cc1cn2nc(-c3ccc4c(=O)n(C5CCNCC5)cnc4c3)nc2c(C)n1 [Compound 287, 7-{6,8-dimethyl-[1,2,4]triazolo[1,5-a]pyrazin-2-yl}-3-(piperidin-4-yl)quinazolin-4-one] | 100 to 1000 | 100 to 1000 | 100 to 1000
Cc1cn2cc(-c3cc(F)c4c(=O)n([C@H]5CNCC[C@@H]5O)cnc4c3)cc(F)c2n1 [Compound 348, 5-fluoro-7-{8-fluoro-2-methylimidazo[1,2-a]pyridin-6-yl}-3-[(3S,4S)-4-hydroxypiperidin-3-yl]quinazolin-4-one] | > 10000 | > 10000 | > 10000
Cc1cn2cc(-c3ccc4c(=O)n(C5CCNCC5)cnc4c3)ncc2n1 [Compound 297] | 100 to 1000 | 100 to 1000 | 100 to 1000
CC[C@@H]1C[C@H](n2ncc3cc(-c4cc(C)c5nc(C)cn5n4)ccc3c2=O)CCN1 [Compound 304] | 100 to 1000 | 100 to 1000 | 100 to 1000
Cc1cn2cc(-c3cc(F)c4c(=O)n([C@H]5CCNC[C@H]5F)cnc4c3)cc(F)c2n1 [Compound 338] | < 100 | < 100 | < 100
Cc1cn2nc(-c3ccc4c(=O)n([C@@H]5CCNC6(CC6)C5)cnc4c3)cc(C)c2n1 [Compound 350, 3-[(7R)-4-azaspiro[2.5]octan-7-yl]-7-{2,8-dimethylimidazo[1,2-b]pyridazin-6-yl}quinazolin-4-one] | < 100 | < 100 | < 100
Cc1cn2nc(-c3ccc4c(c3)CCN(C3CCNC(C)(C)C3)C4=O)cc(C)c2n1 (stereo not drawn) [Compound 267] | 1000 to 10000 | < 100 | 1000 to 10000
Cc1cn2cc(-c3cc(F)c4c(=O)n([C@H]5CCNC[C@@H]5O)cnc4c3)cc(F)c2n1 [Compound 347, 5-fluoro-7-{8-fluoro-2-methylimidazo[1,2-a]pyridin-6-yl}-3-[(3S,4S)-3-hydroxypiperidin-4-yl]quinazolin-4-one] | 100 to 1000 | 1000 to 10000 | 1000 to 10000
Cc1cn2nc(-c3ccc4c(=O)n(C5CCN(C)C5)ncc4c3)cc(C)c2n1 (stereo not drawn) [Compound 271] | 1000 to 10000 | 1000 to 10000 | 1000 to 10000
Cc1cn2cc(-c3ccc4c(=O)n(C5CCNCC5)cnc4c3)cc(C)c2n1 [Compound 292] | 100 to 1000 | 100 to 1000 | 100 to 1000
Cc1cn2nc(-c3ccc4c(=O)n(C5CCNC6(CC6)C5)ncc4c3)cc(C)c2n1 (stereo not drawn) [Compound 274] | < 100 | < 100 | < 100
CN1CCC(n2cnc3cc(-c4cn[nH]c4)ccc3c2=O)CC1 [Compound 299] | > 10000 | > 10000 | > 10000
Cc1cn2nc(-c3ccc4c(=O)n([C@@H]5CCN(C)[C@H](C)C5)ncc4c3)cc(C)c2n1 [Compound 277] | 100 to 1000 | 100 to 1000 | 100 to 1000
Cc1cc(-c2cc(F)c3c(=O)n(C4CCNC5(CC5)C4)cnc3c2)nc2cn(C)nc12 (stereo not drawn) [Compound 361, 3-{4-azaspiro[2.5]octan-7-yl}-7-{2,7-dimethylpyrazolo[4,3-b]pyridin-5-yl}-5-fluoroquinazolin-4-one] | < 100 | < 100 | < 100
Cc1cn2cc(-c3ccc4c(=O)n(C5CCNCC5)cnc4c3)nc2c(C)n1 [Compound 286] | 1000 to 10000 | 1000 to 10000 | 1000 to 10000
CN1CCN(c2ccc3c(=O)n(-c4ccc5nn(C)cc5c4)cnc3c2)CC1 [Compound 152] | > 10000 | > 10000 | 1000 to 10000
Cc1cn2nc(-c3ccc4c(=O)n(C5CCNC(C)(C)C5)ncc4c3)cc(C)c2n1 (stereo not drawn) [Compound 279] | < 100 | 100 to 1000 | < 100
CNc1cc(-c2cn3cc(C)nc3c(C)n2)cc2ncn(C3CCNCC3)c(=O)c12 [Compound 360, 7-{2,8-dimethylimidazo[1,2-a]pyrazine-6-yl}-5-(methylamino)-3-(piperidin-4-yl)quinazolin-4-one] | 1000 to 10000 | > 10000 | 1000 to 10000
Cc1cn2nc(-c3ccc4c(=O)n(C5CCN(C)CC5)cnc4c3)cc2c(C)n1 [Compound 303] | 1000 to 10000 | 1000 to 10000 | 1000 to 10000
Cc1cn2cc(-c3cc(F)c4c(=O)n(C5CCCNCC5)cnc4c3)cc(F)c2n1 (stereo not drawn) [Compound 353, 3-(azepan-4-yl)-5-fluoro-7-{8-fluoro-2-methylimidazo[1,2-a]pyridin-6-yl}quinazolin-4-one] | 100 to 1000 | 100 to 1000 | 100 to 1000
Cc1cn2nc(-c3cc(F)c4c(=O)n(C5CCNCC5)ccc4c3)cc(C)c2n1 [Compound 322] | < 100 | < 100 | < 100
Cc1cn2cc(-c3cc(F)c4c(=O)n([C@H]5CCN[C@@H](C)C5)cnc4c3)cc(F)c2n1 (relative stereo) [Compound 343, cis-5-fluoro-7-(8-fluoro-2-methylimidazo[1,2-a]pyridin-6-yl)-3-(2-methylpiperidin-4-yl)quinazolin-4(3H)-one] | < 100 | < 100 | < 100

SMILES | IC50 [1] [nM] | IC50 [2] [nM] | AC50 (RT-qPCR) [nM]
Cc1cn2nc(-c3cc(F)c4c(=O)n(C5CCNC6(CC6)C5)ncc4c3)cc(C)c2n1 (stereo not drawn) [Compound 312] | < 100 | < 100 | < 100
Cc1nc2c(F)cc(-c3ccc4c(=O)n(C5CCN(C)CC5)cnc4c3)cc2o1 [Compound 300] | 1000 to 10000 | 100 to 1000 | 1000 to 10000
Cn1cc2cc(-n3cnc4cc(C5=CCNCC5)ccc4c3=O)ccc2n1 [Compound 158] | > 10000 | > 10000 | > 10000
Cc1cc(-c2ccc3c(=O)n(C4CCN(C)CC4)cnc3c2)cc2cn(C)nc12 [Compound 156] | 1000 to 10000 | 1000 to 10000 | 1000 to 10000
Cc1cn2cc(-c3ccc4c(=O)n(C5CCN(C)CC5)cnc4c3)nc2c(C)n1 [Compound 302] | 1000 to 10000 | 1000 to 10000 | 1000 to 10000
Cc1ncc(-c2ccc3c(=O)n(C4CCNCC4)cnc3c2)cn1 [Compound 354, 7-(2-methylpyrimidin-5-yl)-3-(piperidin-4-yl)quinazolin-4(3H)-one] | 1000 to 10000 | 1000 to 10000 | 1000 to 10000
Cc1cn2cc(-c3ccc4c(=O)n([C@H]5CCN[C@H](C)C5)cnc4c3)cc(F)c2n1 [Compound 296] | < 100 | < 100 | < 100
Cc1cn2cc(-c3cc(F)c4c(=O)n(C5CNCCC5=O)cnc4c3)cc(F)c2n1 (stereo not drawn) [Compound 352, 5-fluoro-7-{8-fluoro-2-methylimidazo[1,2-a]pyridin-6-yl}-3-(4-oxopiperidin-3-yl)quinazolin-4-one] | > 10000 | > 10000 | > 10000
Cc1cn2nc(-c3ccc4c(=O)n([C@H]5CCN(C)[C@H](C)C5)ncc4c3)cc(C)c2n1 [Compound 278] | 100 to 1000 | 100 to 1000 | 100 to 1000
Cc1cn2nc(-c3ccc4c(c3)CCN([C@@H]3CCN[C@H](C)C3)C4=O)cc(C)c2n1 [Compound 281] | 1000 to 10000 | 1000 to 10000 | 1000 to 10000
Cc1cn2cc(-c3ccc4c(=O)n([C@@H]5CCN[C@H](C)C5)cnc4c3)cc(F)c2n1 [Compound 295] | 100 to 1000 | 100 to 1000 | 100 to 1000
Cc1cn2nc(-c3ccc4c(=O)n([C@H]5CCNC6(CC6)C5)cnc4c3)cc(C)c2n1 [Compound 349, 3-[(7S)-4-azaspiro[2.5]octan-7-yl]-7-{2,8-dimethylimidazo[1,2-b]pyridazin-6-yl}quinazolin-4-one] | 100 to 1000 | 100 to 1000 | 100 to 1000
Cc1cn2cc(-c3cc(F)c4c(=O)n(C5CCNCC5)cnc4c3)cc(C)c2n1 [Compound 317] | < 100 | 100 to 1000 | < 100
Cc1cn2cc(-c3cc(F)c4c(=O)n(C5=CCNCC5)cnc4c3)cc(F)c2n1 [Compound 342] | < 100 | < 100 | < 100
Cc1cn2cc(-c3cc(F)c4c(=O)n([C@H]5CCN[C@H](C)C5)cnc4c3)cc(F)c2n1 [Compound 346, trans-5-fluoro-7-(8-fluoro-2-methylimidazo[1,2-a]pyridin-6-yl)-3-(2-methylpiperidin-4-yl)quina-zolin-4(3H)-one] | < 100 | < 100 | < 100
Cc1cn2cc(-c3cc(F)c4c(=O)n(C5CCNCC5)cnc4c3)nc2c(C)n1 [Compound 319] | 100 to 1000 | 1000 to 10000 | 100 to 1000
Cc1cn2nc(-c3ccc4c(=O)n([C@@H]5C[C@H]6CC[C@@H](C5)N6)ncc4c3)cc(C)c2n1 [Compound 280] | 100 to 1000 | 100 to 1000 | 100 to 1000
Cc1cn2nc(-c3cc(N(C)C)c4c(=O)n(C5CCNC6(CC6)C5)cnc4c3)cc(C)c2n1 (stereo not drawn) [Compound 345] | < 100 | < 100 | < 100
Cn1cc2cc(-c3cc(F)c4c(=O)n(C5CCNCC5)cnc4c3)cc(F)c2n1 [Compound 314] | 1000 to 10000 | 1000 to 10000 | 1000 to 10000
Cc1nc2c(F)cc(-c3ccc4c(=O)n(C5CCN(C)CC5)cnc4c3)cc2s1 [Compound 301] | 1000 to 10000 | 1000 to 10000 | 1000 to 10000
Cc1cn2cc(-c3ccc4c(=O)n(C5CCN(C)CC5)cnc4c3)ncc2n1 [Compound 308] | 1000 to 10000 | 1000 to 10000 | 1000 to 10000
Cc1cn2cc(-c3cc(F)c4c(=O)n(C5CCNCC5(F)F)cnc4c3)cc(F)c2n1 (stereo not drawn) [Compound 339] | 1000 to 10000 | 1000 to 10000 | 1000 to 10000
